In patent US20090099029A1, “Methods and substrates for conducting assays” (Invitrogen Corporation, priority 2005, published 2009):
Where two headings read alike, the source gives them in different places.

Tests used:
Experiment in all cases: Further analysis of a plurality of inhibitors and a plurality of kinases (Table 5 inhibition results)
Assay type in all cases: biochemical
Parameters in all cases: scale not given here
[1] = target: kinases of Table 5 (Homo sapiens, UniProt O75716); settings: kinase STK16 (Part I, plate C3, Domain 1)
Excerpt: (§1) The wash solution is then discarded.

[2] = target: kinases of Table 5 (Homo sapiens, UniProt Q8IVW4); settings: inhibitor 100 uM; for Inhibition level: kinase CDKL3; for Inhibition Results (Level): kinase CDKL3 (Part II, plate F12, Domain 0)
Excerpt: as §1

[3] = target: T1, kinases of Table 5 (Homo sapiens, UniProt Q99759); settings: kinase MAP3K3 (Part I, plate A1, Domain 0)
T1 sequence (Q99759 1-626): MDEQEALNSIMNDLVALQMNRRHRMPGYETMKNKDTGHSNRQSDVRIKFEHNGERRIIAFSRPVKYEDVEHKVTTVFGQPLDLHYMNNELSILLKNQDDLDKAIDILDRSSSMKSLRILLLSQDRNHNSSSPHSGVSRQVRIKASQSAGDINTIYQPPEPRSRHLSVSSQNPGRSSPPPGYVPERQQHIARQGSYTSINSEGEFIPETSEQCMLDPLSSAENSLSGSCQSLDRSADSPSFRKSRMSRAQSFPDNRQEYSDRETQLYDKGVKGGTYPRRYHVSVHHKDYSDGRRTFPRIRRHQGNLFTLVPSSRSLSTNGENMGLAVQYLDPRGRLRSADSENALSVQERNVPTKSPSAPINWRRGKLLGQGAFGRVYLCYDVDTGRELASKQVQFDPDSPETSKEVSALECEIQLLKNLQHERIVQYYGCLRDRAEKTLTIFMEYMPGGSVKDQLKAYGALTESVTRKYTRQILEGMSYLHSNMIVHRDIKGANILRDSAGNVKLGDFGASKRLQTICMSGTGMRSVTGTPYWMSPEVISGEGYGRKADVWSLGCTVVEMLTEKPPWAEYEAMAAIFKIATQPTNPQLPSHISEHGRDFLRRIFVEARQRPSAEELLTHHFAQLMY
Excerpt: as §1

[4] = target: T2, kinases of Table 5 (Homo sapiens, UniProt P45985)
T2 sequence (P45985 1-399): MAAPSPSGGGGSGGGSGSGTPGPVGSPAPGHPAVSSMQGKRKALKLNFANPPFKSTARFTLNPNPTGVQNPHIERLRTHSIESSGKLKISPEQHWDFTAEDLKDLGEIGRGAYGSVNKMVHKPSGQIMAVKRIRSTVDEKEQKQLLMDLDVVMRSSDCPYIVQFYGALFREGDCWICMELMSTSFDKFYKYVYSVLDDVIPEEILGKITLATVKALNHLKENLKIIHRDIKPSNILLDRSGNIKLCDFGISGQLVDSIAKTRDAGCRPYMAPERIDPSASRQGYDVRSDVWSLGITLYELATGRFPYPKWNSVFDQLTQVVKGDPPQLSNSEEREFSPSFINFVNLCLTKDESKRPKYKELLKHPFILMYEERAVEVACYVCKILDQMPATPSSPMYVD
Excerpt: as §1

[5] = target: kinases of Table 5 (Homo sapiens, UniProt P07948)
Excerpt: as §1

[6] = target: kinases of Table 5 (Homo sapiens, UniProt Q14289); settings: kinase PTK2B (Part I, plate G5, Domain 1)
Excerpt: as §1

[7] = target: kinases of Table 5 (Homo sapiens, UniProt P09769); settings: for Inhibition level: kinase FGR; for Inhibition Results (Level): kinase FGR (Part II, plate B10, Domain 0)
Excerpt: as §1

[8] = target: kinases of Table 5 (Homo sapiens, UniProt Q8IU85); settings: inhibitor 100 uM; for Inhibition level: kinase LOC57118; for Inhibition Results (Level): kinase LOC57118 (Part II, plate D2, Domain 1)
Excerpt: as §1

[9] = target: T3, kinases of Table 5 (Homo sapiens, UniProt Q9Y616); settings: kinase IRAK3 (Part I, plate C9, Domain 1); inhibitor 100 uM
T3 sequence (Q9Y616 1-596): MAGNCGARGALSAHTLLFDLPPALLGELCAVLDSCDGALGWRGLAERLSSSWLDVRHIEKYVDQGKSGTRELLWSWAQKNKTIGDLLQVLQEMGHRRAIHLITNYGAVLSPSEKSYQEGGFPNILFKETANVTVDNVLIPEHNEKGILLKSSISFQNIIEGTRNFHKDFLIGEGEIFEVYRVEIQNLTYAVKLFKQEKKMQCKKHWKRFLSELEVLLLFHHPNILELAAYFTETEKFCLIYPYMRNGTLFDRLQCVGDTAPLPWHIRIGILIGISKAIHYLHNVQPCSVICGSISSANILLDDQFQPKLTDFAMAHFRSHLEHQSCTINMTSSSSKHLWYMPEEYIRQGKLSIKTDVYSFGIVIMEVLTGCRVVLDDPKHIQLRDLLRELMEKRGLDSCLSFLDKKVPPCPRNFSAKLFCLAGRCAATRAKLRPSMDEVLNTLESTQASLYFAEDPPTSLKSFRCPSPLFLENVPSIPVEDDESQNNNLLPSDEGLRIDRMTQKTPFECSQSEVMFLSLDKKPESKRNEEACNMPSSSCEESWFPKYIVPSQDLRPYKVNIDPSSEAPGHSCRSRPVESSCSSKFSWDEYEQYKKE
Excerpt: as §1

[10] = kinase MAP2K4 (Part I, plate E6, Domain 1), inhibitor 100 uM
[11] = kinase LYN (Part I, plate A5, Domain 0), inhibitor 100 uM

Chain of kinases of Table 5 (Homo sapiens, UniProt Q8IVW4) (Q8IVW4 whole entry): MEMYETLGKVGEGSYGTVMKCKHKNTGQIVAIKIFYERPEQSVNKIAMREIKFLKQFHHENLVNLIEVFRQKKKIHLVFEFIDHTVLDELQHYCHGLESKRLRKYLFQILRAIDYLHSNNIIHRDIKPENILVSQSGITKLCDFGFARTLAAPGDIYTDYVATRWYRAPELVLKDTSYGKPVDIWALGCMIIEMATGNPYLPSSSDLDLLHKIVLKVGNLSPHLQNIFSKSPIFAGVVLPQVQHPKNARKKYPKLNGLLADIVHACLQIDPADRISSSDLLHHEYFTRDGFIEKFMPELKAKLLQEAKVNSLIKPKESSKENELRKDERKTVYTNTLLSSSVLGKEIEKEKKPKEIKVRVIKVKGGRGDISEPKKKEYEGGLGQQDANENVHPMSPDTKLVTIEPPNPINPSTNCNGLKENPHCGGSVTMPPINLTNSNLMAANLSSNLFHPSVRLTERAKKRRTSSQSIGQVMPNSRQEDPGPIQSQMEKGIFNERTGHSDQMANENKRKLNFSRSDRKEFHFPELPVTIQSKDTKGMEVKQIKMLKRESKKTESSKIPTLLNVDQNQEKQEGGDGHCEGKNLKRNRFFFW
Chain of kinases of Table 5 (Homo sapiens, UniProt Q8IU85) (Q8IU85 whole entry): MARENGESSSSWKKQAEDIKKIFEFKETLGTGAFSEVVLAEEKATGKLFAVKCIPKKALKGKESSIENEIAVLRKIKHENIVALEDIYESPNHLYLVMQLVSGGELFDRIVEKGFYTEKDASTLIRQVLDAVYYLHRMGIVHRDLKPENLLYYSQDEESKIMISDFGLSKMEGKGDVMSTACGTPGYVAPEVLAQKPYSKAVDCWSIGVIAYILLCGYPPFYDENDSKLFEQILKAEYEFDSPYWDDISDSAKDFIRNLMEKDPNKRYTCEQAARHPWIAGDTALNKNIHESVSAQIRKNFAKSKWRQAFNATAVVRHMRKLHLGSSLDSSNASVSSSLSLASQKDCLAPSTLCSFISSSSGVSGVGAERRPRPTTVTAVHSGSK
Chain of kinases of Table 5 (Homo sapiens, UniProt P07948) (P07948 whole entry): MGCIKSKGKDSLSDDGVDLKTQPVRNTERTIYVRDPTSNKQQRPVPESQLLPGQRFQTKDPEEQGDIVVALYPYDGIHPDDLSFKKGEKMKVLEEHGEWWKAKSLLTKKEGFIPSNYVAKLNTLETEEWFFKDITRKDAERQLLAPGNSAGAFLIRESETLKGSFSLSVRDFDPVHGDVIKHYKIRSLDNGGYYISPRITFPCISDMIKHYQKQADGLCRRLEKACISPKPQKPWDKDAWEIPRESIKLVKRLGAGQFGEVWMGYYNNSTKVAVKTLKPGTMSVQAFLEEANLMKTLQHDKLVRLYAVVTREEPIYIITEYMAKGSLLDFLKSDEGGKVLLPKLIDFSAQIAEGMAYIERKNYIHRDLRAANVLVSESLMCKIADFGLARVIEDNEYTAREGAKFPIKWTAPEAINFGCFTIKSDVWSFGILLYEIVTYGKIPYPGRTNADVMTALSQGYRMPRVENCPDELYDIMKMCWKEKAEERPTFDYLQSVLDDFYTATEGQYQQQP
Chain of kinases of Table 5 (Homo sapiens, UniProt O75716) (O75716 whole entry): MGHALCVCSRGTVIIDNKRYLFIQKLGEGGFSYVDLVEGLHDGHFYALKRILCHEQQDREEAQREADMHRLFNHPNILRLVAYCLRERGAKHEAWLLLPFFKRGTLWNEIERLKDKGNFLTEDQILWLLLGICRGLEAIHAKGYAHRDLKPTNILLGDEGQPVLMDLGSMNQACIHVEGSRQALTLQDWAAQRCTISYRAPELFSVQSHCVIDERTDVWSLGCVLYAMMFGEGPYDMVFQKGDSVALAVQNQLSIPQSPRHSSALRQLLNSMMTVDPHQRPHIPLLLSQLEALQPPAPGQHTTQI
Chain of kinases of Table 5 (Homo sapiens, UniProt Q14289) (Q14289 whole entry): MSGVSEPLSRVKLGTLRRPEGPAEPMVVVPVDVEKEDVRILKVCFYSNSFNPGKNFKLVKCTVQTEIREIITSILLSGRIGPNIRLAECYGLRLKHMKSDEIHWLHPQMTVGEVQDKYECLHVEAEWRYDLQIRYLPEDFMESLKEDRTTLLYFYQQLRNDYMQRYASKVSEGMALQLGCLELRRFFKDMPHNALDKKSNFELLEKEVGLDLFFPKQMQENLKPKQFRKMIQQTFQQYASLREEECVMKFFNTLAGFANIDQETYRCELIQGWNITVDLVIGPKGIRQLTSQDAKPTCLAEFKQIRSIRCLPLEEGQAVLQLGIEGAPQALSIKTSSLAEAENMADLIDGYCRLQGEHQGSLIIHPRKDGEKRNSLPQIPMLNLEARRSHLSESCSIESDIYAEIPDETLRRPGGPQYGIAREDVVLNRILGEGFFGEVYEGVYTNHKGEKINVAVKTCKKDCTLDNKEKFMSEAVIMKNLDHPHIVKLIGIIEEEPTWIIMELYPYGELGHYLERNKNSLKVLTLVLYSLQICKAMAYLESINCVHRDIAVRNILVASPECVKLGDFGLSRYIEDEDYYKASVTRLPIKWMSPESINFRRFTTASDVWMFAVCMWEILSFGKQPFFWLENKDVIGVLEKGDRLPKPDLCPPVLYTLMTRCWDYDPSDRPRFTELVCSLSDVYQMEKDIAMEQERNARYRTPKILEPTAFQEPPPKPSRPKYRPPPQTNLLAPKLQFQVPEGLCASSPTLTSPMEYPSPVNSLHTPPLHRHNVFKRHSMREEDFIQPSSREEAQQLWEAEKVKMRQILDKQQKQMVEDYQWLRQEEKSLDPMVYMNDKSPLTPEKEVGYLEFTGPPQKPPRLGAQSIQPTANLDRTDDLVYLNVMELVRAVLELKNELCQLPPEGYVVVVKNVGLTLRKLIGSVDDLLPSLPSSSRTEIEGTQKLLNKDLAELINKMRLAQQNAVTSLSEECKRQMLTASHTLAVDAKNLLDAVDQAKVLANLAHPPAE
Chain of kinases of Table 5 (Homo sapiens, UniProt P09769) (P09769 whole entry): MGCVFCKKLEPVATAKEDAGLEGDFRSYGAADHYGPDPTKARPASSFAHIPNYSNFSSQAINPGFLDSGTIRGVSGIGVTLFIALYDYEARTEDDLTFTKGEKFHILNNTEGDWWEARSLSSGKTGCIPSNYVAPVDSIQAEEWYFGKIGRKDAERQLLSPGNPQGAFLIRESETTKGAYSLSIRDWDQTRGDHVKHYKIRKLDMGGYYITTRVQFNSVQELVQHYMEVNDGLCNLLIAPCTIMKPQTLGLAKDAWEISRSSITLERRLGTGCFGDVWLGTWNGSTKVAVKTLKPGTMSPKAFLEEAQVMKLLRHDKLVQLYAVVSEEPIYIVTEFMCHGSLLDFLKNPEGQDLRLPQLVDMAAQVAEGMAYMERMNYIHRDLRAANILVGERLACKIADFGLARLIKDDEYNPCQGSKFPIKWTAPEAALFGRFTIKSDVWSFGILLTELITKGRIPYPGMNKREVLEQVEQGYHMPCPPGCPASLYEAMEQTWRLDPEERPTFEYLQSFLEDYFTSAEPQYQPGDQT

SMILES | Inhibition Results (Level) ([1]; inhibitor 100 uM) | Inhibition level [2] | Inhibition Results (Level) ([3]; inhibitor 100 uM) | Inhibition Results (Level) [4, 10] | Inhibition Results (Level) [5, 11] | Inhibition Results (Level) ([6]; inhibitor 100 uM) | Inhibition level ([7]; inhibitor 100 uM) | Inhibition level [8] | Inhibition Results (Level) [9] | Inhibition level ([7]; concentration not given) | Inhibition Results (Level) [2] | Inhibition Results (Level) ([7]; inhibitor 100 uM) | Inhibition Results (Level) [8] | other results
N#C/C(=C/c1ccc(O)c(O)c1)C(=O)NCc1ccccc1 [AG 490] | 0 | 2 | 2 | 0 | 2 | 2 | 2 | 1 | 0 | – | – | – | – | –
COc1cc2ncnc(Nc3cccc(Cl)c3)c2cc1OC [AG 1478] | 0 | 1 | 2 | 0 | 2 | 2 | 2 | 0 | 2 | – | – | – | – | –
O=c1c(O)c(-c2ccc(O)c(O)c2)oc2cc(O)cc(O)c12 [Quercetin] | 0 | – | 0 | 0 | 2 | 1 | – | – | 0 | – | 0 | 2 | 0 | –
CC(=O)c1c(O)c(C)c(O)c(Cc2c(O)c3c(c(C(=O)/C=C/c4ccccc4)c2O)OC(C)(C)C=C3)c1O [Rottlerin (Mallotoxin)] | 0 | – | 2 | 1 | 2 | 2 | – | – | 2 | – | 1 | 2 | 0 | –
CN[C@@H]1C[C@H]2O[C@@](C)([C@@H]1OC)n1c3ccccc3c3c4c(c5c6ccccc6n2c5c31)C(=O)NC4 [Staurosporine] | – | – | – | – | – | – | – | – | – | 2 | – | – | – | Inhibition Results (Level) ([1]; inhibitor 21.5 uM): 2; Inhibition Results (Level) ([3]; inhibitor 21.5 uM): 2; Inhibition Results (Level) [4]: 0; Inhibition Results (Level) [5]: 0; Inhibition Results (Level) ([6]; inhibitor 21.5 uM): 0

Further lines, with some results ahead:

Inhibition Results (Level) ([1]; inhibitor 100 uM) | Inhibition level [2] | Inhibition Results (Level) ([3]; inhibitor 100 uM) | Inhibition Results (Level) [4, 10] | Inhibition Results (Level) [5, 11] | Inhibition Results (Level) ([6]; inhibitor 100 uM) | Inhibition level ([7]; inhibitor 100 uM) | Inhibition level [8] | Inhibition Results (Level) [9] | Inhibition level ([7]; concentration not given) | SMILES | Inhibition Results (Level) [2] | Inhibition Results (Level) ([7]; inhibitor 100 uM) | Inhibition Results (Level) [8] | other results
0 | 0 | 2 | 2 | 2 | 2 | 2 | 0 | 2 | 2 | O=c1c(-c2ccc(O)cc2)coc2cc(O)cc(O)c12 [Genistein] | – | – | – | Inhibition Results (Level) ([1]; inhibitor <3.7 mM): 0; Inhibition Results (Level) ([3]; inhibitor <3.7 mM): 2; Inhibition Results (Level) ([4]; kinase MAP2K4 (Part I, plate E6, Domain 1), inhibitor <3.7 mM): 0; Inhibition Results (Level) ([5]; kinase LYN (Part I, plate A5, Domain 0), inhibitor <3.7 mM): 2
2 | – | 2 | 1 | 2 | 1 | – | – | 0 | – | O=S(=O)(NCCNC/C=C/c1ccc(Br)cc1)c1cccc2cnccc12 [H-89] | 1 | 2 | 1 | –
2 | 2 | 2 | 2 | 2 | 2 | 2 | 0 | 2 | – | CC(C)(C)n1nc(-c2ccc(Cl)cc2)c2c(N)ncnc21 [PP2] | – | – | – | –
1 | 2 | 0 | 1 | 2 | 2 | 2 | 0 | 2 | 2 | Cn1cc(C2=C(c3cn(CCCSC(=N)N)c4ccccc34)C(=O)NC2=O)c2ccccc21 [Ro-31-8220] | – | – | – | Inhibition Results (Level) ([1]; inhibitor 90 uM): 2; Inhibition Results (Level) ([3]; inhibitor 90 uM): 2; Inhibition Results (Level) ([4]; kinase MAP2K4 (Part I, plate E6, Domain 1), inhibitor 90 uM): 0; Inhibition Results (Level) ([5]; kinase LYN (Part I, plate A5, Domain 0), inhibitor 90 uM): 0; Inhibition Results (Level) ([6]; inhibitor 90 uM): 0
